# Reference: ChEMBL document CHEMBL5316277, “Discovery of Spiro[pyrrolidine-3,3'-oxindole] LXRβ Agonists for the Treatment of Osteoporosis” (J Med Chem, 2023)
# Calls of active or inactive are those of the source. No cut-off for these calls is given here.
# Test system: BMMC
# Assay: Anti-osteoporosis activity in C57BL/6 mouse bone marrow macrophage cells assessed as inhibition of RANKL-induced osteoclastogenesis measured after 5 days in presence of MCSF by TRAP staining based assay
# Type: functional, cell-based
# Conditions: C57BL/6, BMMC, 120 h
row,Compound,IC50 [nM]
1,COC(=O)c1c(F)cc(-c2cc(F)cc([C@H]3N(C(=O)OC(C)(C)C)CC[C@]34C(=O)Nc3ccccc34)c2)cc1F,4140
2,COCc1ccc(-c2cc(F)cc([C@H]3N(S(=O)(=O)C(C)C)CC[C@]34C(=O)N(C)c3ccccc34)c2)cc1S(C)(=O)=O,200
3,COC(=O)Cn1ccc2cc(-c3cc(F)cc([C@H]4N(C(=O)OC(C)(C)C)CC[C@]45C(=O)Nc4ccccc45)c3)ccc21,3400
4,COC(=O)c1ccc(-c2cc(F)cc([C@H]3N(C(=O)OC(C)(C)C)CC[C@]34C(=O)Nc3ccccc34)c2)cc1Cl,8780
5,CC(C)(C)CC(=O)N1CC[C@]2(C(=O)Nc3ccccc32)[C@H]1c1cccc(-c2ccc(CO)c(S(C)(=O)=O)c2)c1,360
6,CC(C)(C)OC(=O)N1CC[C@]2(C(=O)Nc3ccccc32)[C@H]1c1cccc(-c2ccc(CO)c(S(C)(=O)=O)c2)c1,200
7,COC(=O)c1c[nH]c2cc(-c3cc(F)cc([C@H]4N(C(=O)OC(C)(C)C)CC[C@]45C(=O)Nc4ccccc45)c3)ccc12,2890
8,COC(=O)c1ccc(-c2cc(F)cc([C@H]3N(C(=O)OC(C)(C)C)CC[C@]34C(=O)N(C)c3ccccc34)c2)cc1S(C)(=O)=O,2170
9,COC(=O)c1cn(C)c2cc(-c3cc(F)cc([C@H]4N(C(=O)OC(C)(C)C)CC[C@]45C(=O)Nc4ccccc45)c3)ccc12,1560
10,COC(=O)Cc1ccc(-c2cc(F)cc([C@H]3N(C(=O)OC(C)(C)C)CC[C@]34C(=O)Nc3ccccc34)c2)cc1Cl,3400
11,COCc1ccc(-c2cc(F)cc([C@H]3N(C(=O)OC(C)(C)C)CC[C@]34C(=O)N(C)c3ccccc34)c2)cc1S(C)(=O)=O,220
12,COC(=O)c1ccc(-c2cc(F)cc([C@H]3N(S(=O)(=O)C(C)C)CC[C@]34C(=O)N(C)c3ccccc34)c2)cc1S(C)(=O)=O,200
13,COC(=O)c1ccc(-c2cccc([C@H]3N(C(=O)OC(C)(C)C)CC[C@]34C(=O)N(C)c3ccccc34)c2)cc1S(C)(=O)=O,200

# Test system: BMMC
# Assay: Anti-osteoporosis activity in C57BL/6 mouse bone marrow macrophage cells assessed as inhibition of RANKL-induced osteoclastogenesis at more than 10 uM measured after 5 days in presence of MCSF by TRAP staining based assay
# Type: functional, cell-based
# Conditions: time 5.0 day
row,Compound,inhibition
1,CC(C)(C)OC(=O)N1CC[C@]2(C(=O)Nc3ccccc32)[C@H]1c1cc(F)cc(-c2ccc(CC(=O)O)c(Cl)c2)c1,inactive
2,CC(C)(C)OC(=O)N1CC[C@]2(C(=O)Nc3ccccc32)[C@H]1c1cc(F)cc(-c2ccc(C(=O)O)c(S(C)(=O)=O)c2)c1,inactive

# Test system: BMMC
# Assay: Cytotoxicity against C57BL/6 mouse bone marrow macrophage cells assessed as reduction in cell viability up to 10 uM incubated for 72 hrs by MTT assay
# Type: toxicity, cell-based
# Conditions: not given
row,Compound,Activity
1,COC(=O)c1ccc(-c2cc(F)cc([C@H]3N(C(=O)OC(C)(C)C)CC[C@]34C(=O)Nc3ccccc34)c2)cc1S(C)(=O)=O,Non-Toxic
